Tests used:
Format in all cases: in vivo
[1] = system: articular cartilages of the knee joints of the rats; assay: Histomorphological and morphometric study of the articular cartilages of the knee joints (light microscopy, scoring system)
Description: The study was conducted using white outbred male rats 4-5 months of age weighing 250-300 g obtained from the same litter (same age and weight, with normal primary clinical and biochemical analyses parameters). Modeling of steroid arthritis was achieved by three single intramuscular injections of dexamethasone administered at an interval of 1 week at a dose of 7 mg/kg. The first signs of the arthropathy were detected as early as week 2 of the experiment.
Starting from day 28 of the experiment, all animals received corresponding intramuscular doses of the preparations on a daily basis over 4 weeks. The degree of activity of the pathological process was evaluated using biochemical blood test parameters. The following biochemical parameters were used as the parameters for evaluation of the intensity of progression of the pathological process in the experimental groups: the contents of sialic acids, glycoproteins, and chondroitin sulfates in the serum, as these parameters reflect the intensity of progression of the degenerative-dystrophic processes in the connective tissue.
Clinical observation of the animals was implemented throughout the study; the functional state of the rat joints was monitored (degree of mobility, resistance to stress, swelling, hyperaemia). The animals were decapitated under ether anesthesia at the end of the study (on day 56) to harvest biomaterials for biochemical and histomorphological studies.
In order to investigate the chondroprotective activity of the composition, a study of the condition of the morpho- and ultrastructure of the articular cartilages of the knee joints of the rats was carried out on day 56 of the experiment.
The histomorphological investigation of the articular cartilages was carried out using standard light microscopy techniques.
The morphometric measurements were carried out using an ocular micrometer: the cartilage thickness was determined using slide mounts; the measurements were taken at 3 individual points - the central part of the head, and the upper and lower edges. The thickness of the articular cartilages was expressed in conventional units. The density of chondrocytes per conventional unit area was also estimated. Statistical processing of the digital data obtained was performed using Student's t-test and non-parametric methods of analysis (Mann-Whitney U Test). […]

[2] = system: rats with experimental arthritis; assay: Primary connective tissue metabolites in blood serum, rat model of systemic steroid (dexamethasone) arthritis; settings: Day 56, daily i.m. 4 weeks, 50 mg/kg
Description: Example 2. A study of the chondroprotective activity of a composition comprising peptides Lys-Asp-Glu, Ala-Asp-Glu, Asp-Glu-Gly, and an agent comprising peptides Lys-Asp-Glu, Ala-Asp-Glu, Asp-Glu-Gly and chondroitin sulfate and/or glucosamine sulfate using a rat-based model of systemic steroid arthritis.
Lyophilized powder consisting of peptides Lys-Asp-Glu, Ala-Asp-Glu, Asp-Glu-Gly was used to obtain the preparation for intramuscular injections.
The daily dose of the composition comprising peptides Lys-Asp-Glu, Ala-Asp-Glu, Asp-Glu-Gly was 50 µg/kg (at a weight ratio of the peptides of 1:1:1), 150 µg/kg (at a weight ratio of the peptides of 1:2:1), 300 µg/kg (at a weight ratio of the peptides of 0.1:1:10) or 600 µg/kg (at a weight ratio of the peptides of 1:1:3).
The daily dose of the composition comprising peptides Lys-Asp-Glu, Ala-Asp-Glu, Asp-Glu-Gly and glucosamine sulfate or chondroitin sulfate was 150 µg/kg of the peptides (at a weight ratio of the peptides of 1:2:1) and 50 mg/kg of glucosamine sulfate or chondroitin sulfate, or 300 µg/kg of the peptides (at a weight ratio of the peptides of 0.1:1:10) and 50 mg/kg of glucosamine sulfate or chondroitin sulfate, or 600 µg/kg of the peptides (at a weight ratio of the peptides of 1:1:3) and 50 mg/kg of glucosamine sulfate or chondroitin sulfate. […]
The study was conducted using white outbred male rats 4-5 months of age weighing 250-300 g obtained from the same litter (same age and weight, with normal primary clinical and biochemical analyses parameters). […] The first signs of the arthropathy were detected as early as week 2 of the experiment.
Starting from day 28 of the experiment, all animals received corresponding intramuscular doses of the preparations on a daily basis over 4 weeks. The degree of activity of the pathological process was evaluated using biochemical blood test parameters. […]
Clinical observation of the animals was implemented throughout the study; the functional state of the rat joints was monitored (degree of mobility, resistance to stress, swelling, hyperaemia). […]

[3] = system: patients with degenerative process occurring in the intervertebral joints and intervertebral discs; assay: Clinical administration to patients with degenerative process of the spine (second group); settings: 50 mg intramuscularly daily, 30 injections
Description: (§1) Example 3. Administration of the peptide composition and the peptide composition in combination with glucosamine sulfate and/or chondroitin sulfate to patients with degenerative-dystrophic diseases of the joints and the spine.
(§2) The studies were carried out in a group patients aged 40 - 65 years.
The second group (30 patients) was characterized by the degenerative process occurring in the intervertebral joints and intervertebral discs accompanied by deformation of the intervertebral discs and formation of osteophytes, which was manifested in the appearance of pain of varying intensity and duration.
A total of 10 patients in the second group received the peptide composition at a dose of 300 µg; 9 patients received glucosamine sulfate at a dose of 50 mg; and 11 patients received the composition of the peptides at a dose of 300 µg and glucosamine sulfate at a dose of 50 mg administered intramuscularly on a daily basis. The treatment course comprised 30 injections. A therapeutic effect associated with administration of glucosamine sulfate was achieved after at least 1 month of therapy. […]

[4] = system: articular cartilages of rats with experimental arthritis; assay: Electron microscopic study of the ultrastructure of the articular cartilages; settings: 50 mg/kg
Description: The study of the ultrastructure of the articular cartilages of the rats was performed using conventional electron microscopy techniques.

[5] = system: patients with degenerative-dystrophic diseases of the joints; assay: Clinical administration to patients with joint disease (first group); settings: 500 mg, tablets twice a day three weeks then once daily
Description: as §1, §2
The first group (50 patients) was characterized by stiffness in the joints, as well as puffiness or swelling in the joints, which was manifested in the appearance of pain of varying intensity and duration.
A total of 15 patients in the first group were exposed to the peptide composition administered at a dose of 150 µg; 7 patients received glucosamine sulfate at a dose of 500 mg; 10 patients were treated with the composition of the peptides administered at a dose of 150 µg, glucosamine sulfate at a dose of 500 mg, and chondroitin sulfate at a dose of 50 mg; and 18 patients received the composition of the peptides administered at a dose of 150 µg and glucosamine sulfate at a dose of 500 mg in the form of tablets twice a day over the first three weeks and then once daily for up to 6 months. A sustained therapeutic effect associated with administration of glucosamine sulfate was achieved after at least 6 months of therapy. […]

N[C@H]1C(O)O[C@H](CO)[C@@H](O)[C@@H]1O.O=S(=O)(O)O (stereo partly shown) [Glucosamine sulfate]
morphology of the joints (slide mounts) ([1]; 50 mg/kg): improvement of the morphology in comparison to the control pathology animal group | Cartilage thickness ([1]; day 56, 50 mg/kg): 14.10±1.06 conventional units | Cell density per conventional unit area ([1]; day 56, 50 mg/kg): 23.79±1.80 | Total score according to the cartilage condition evaluation system ([1]; day 56, 50 mg/kg): 16.2±1.3 | Chondroitin sulfate [2]: 0.400 ± 0.027 g/L | Glycoproteins [2]: 3.59 ± 0.29 g/L | Sialic acids [2]: 4.27 ± 0.34 mmol/L | therapy duration until therapeutic effect [3]: at least 1 month | ultrastructure of the cartilages [4]: normalization of the ultrastructure of the cartilages accompanied by moderate degenerative-dystrophic manifestations in chondrocytes | therapy duration until sustained therapeutic effect [5]: at least 6 months
